Data on 3 molecules can be found in patent publication US9586974B2, “Cyclic N-acyl O-amino phenol CBI derivative” (THE SCRIPPS RESEARCH LINSTITUTE, priority 2013, dated 2017).

As usually defined, the IC50 is the concentration that inhibits the measured activity by half.

Values joined by “and” are separate entries in the source; they are usually repeats but may differ in a detail not shown here. Equal values may be shown once. Read-outs that look alike come from different tables or passages of the source. Some results are limits rather than exact numbers.

The nature of data set [1]: Stability in acidic media.
Data set [2] relates to L1210 (ATCC CCL-219) mouse lymphocytic leukemia cells. Put plainly: Cell growth inhibition assay (phosphatase readout). In kind it is cell-based. Here is the method:
Compounds were tested for their cell growth inhibition of L1210 (ATCC CCL-219) mouse lymphocytic leukemia cells. A population of cells (>1×10^6 cells/mL as determined with a hemocytometer) was diluted with an appropriate amount of Dulbecco-modified Eagle Medium (DMEM, Gibco) containing 10% fetal bovine serum (FBS, Gibco) to a final concentration of 30,000 cells/mL. To each well of a 96-well plate (Corning® Costar®), 100 μL of the cell-media solution was added with a multichannel pipette. The cultures were incubated at 37° C. in an atmosphere of 5% CO2 and 95% humidified air for 24 hours. The test compounds were added to the plate as follows: test substances were diluted in DMSO to a concentration of 1 mM and 10-fold serial dilutions were performed on a separate 96-well plate. Fresh culture medium (100 μL) was added to each well of cells to constitute 200 μL of medium per well followed by 2 μL of each test agent. Compounds were tested in duplicate (≧2 times) at six concentrations between 0-100 nM or 0-1000 nM. Following addition, cultures were incubated for an additional 72 hours.
A phosphatase assay was used to establish the IC50 values as follows: the media in each cell was removed and 100 μL of phosphatase solution (100 mg phosphatase substrate in 30 mL 0.1 M NaOAc, pH 5.5, 0.1% Triton® X-100 buffer) was added to each well. The plates were incubated at 37° C. for 5 minutes. After the given incubation time, 50 μL of 0.1 N NaOH was added to each well and the absorption at 405 nm was determined using a 96 well plate reader. As the absorption is directly proportional to the number of living cells, the IC50 values were calculated and the reported values represent of the average of ≧4 determinations (SD±10%).

Data set [3] can be described thus: Cleavage under reductive conditions. In kind it is physicochemical. The following applies: H2, Pd/C, MeOH, 23° C., 1 hour or Mo(CO)6, MeCN/H2O, reflux, 3 hours. The text has this: The greater stability of Compound 12 versus Compound 15 toward nucleophilic cleavage of the N—O bond can be attributed to the increased steric hindrance of the tertiary versus secondary nitrogen consistent with prior observations. [Lajiness et al., J. Med. Chem. 2010, 53:7731-7738]

Data set [4] deals with L1210 murine leukemia cells. Put plainly: In vivo antitumor activity, L1210 implanted ip in B6D2F1 mice. The arrangement: species or system mouse. As for the experimental part: [Wolfe et al., J. Med. Chem. 2012, 55:5878-5886.] Therefore, the preliminary evaluation of the in vivo antitumor activity of the cyclic N—O pro-drugs was assessed with Compound (+)-6 and was conducted alongside seco-CBI-indole2 (Compound 4) in an antitumor model consisting of L1210 murine leukemia cells implanted ip in B6D2F1 mice traditionally used to initially compare new duocarmycin derivatives (Table 3, below).
B6D2F1 mice were injected intraperitoneally (i.p.) with syngeneic L1210 cells (1×10^6) on day 0. Ten mice were randomly assigned to control vehicle or treatment groups for Compounds (+)-4 and (+)-6 at doses of 60, 100, 250, and 500 μg/kg/inj for Compounds (+)-4 or 60, 200, 500, 1000, and 2500 μg/kg/inj for Compounds (+)-6. Compounds (+)-4 and (+)-6 were formulated in 100% DMSO. Both compounds were injected i.p. on days 1, 5, and 9. Following injection of tumor cells, animals were monitored daily and weighed two times per week. Percent survival (T/C) for treated and control groups were determined by dividing the total survival days for each treatment group by the total survival days for the control group and multiplying×100. All animal studies were carried out in the animal facilities of The University of Kansas Medical Center with strict adherence to the guidelines of the IACUC Animal Welfare Committee of KUMC (IACUC approval #2009-1837).

Data set [5] can be described thus: Stability in human plasma. In kind it is in vitro ADME. As for the experimental part: Reagents and solvents were purchased reagent-grade and used without further purification. Pooled human plasma, with sodium citrate as an anticoagulant, was purchased from Innovative Research and stored at −20° C. THF was freshly distilled from sodium benzophenone ketyl. All reactions were performed in oven-dried glassware under an Ar atmosphere. Evaporation and concentration in vacuo was performed at 20° C. TLC was conducted using precoated SiO2 60 F254 glass plates from EMD with visualization by UV light (254 or 366 nm). Chiral phase HPLC was performed using a Shimadzu HPLC on a semi-preparative Diacel ChiralCel OD column (0.46 cm×25 cm) with a flow rate of 7 mL/min and with UV detection at λ=254 nm. Optical rotations were determined on a Rudolf Research Analytical Autopol III Automatic Polarimeter (λ=589 nm, 25° C.).

Test in data set [6]: not given
The source holds these as a separate data set.

Data set [7] has as its system L1210 murine leukemia cells. The following applies: literature dose range; cited from earlier work.
Setting [8] is: Mus musculus, L1210, 72 h, read-out: IC50 L1210 unnatural, unnatural enantiomer, 72 hours.
Where [9] appears, read: 60 μg/kg i.p. on days 1, 5 and 9.
The mark [10] stands for this setting: 200 μg/kg i.p. on days 1, 5 and 9.
The mark [11] stands for this setting: 500 μg/kg i.p. on days 1, 5 and 9.
[12] abbreviates: 1000 μg/kg i.p. on days 1, 5 and 9.
[13] abbreviates: 2500 μg/kg i.p. on days 1, 5 and 9.

For the molecule `CN1Oc2cc3c(c4cccc(c24)C1=O)[C@H](CCl)CN3C(=O)c1cc2cc(NC(=O)c3cc4ccccc4[nH]3)ccc2[nH]1` [Compound 6, N-(2-(10-(Chloromethyl)-5-methyl-4-oxo-5,8,9,10-tetrahydro-4H-pyrrolo[3′,2′:5,6]naphtho[1,8-de][1,2]oxazine-8-carbonyl)-1H-indol-5-yl)-1H-indole-2-carboxamide], the “t1/2 in pH 7.0 phosphate buffer” value is listed as > 4 weeks. In addition, the “half-life in acidic media” value in data set [1] (1:1 TFA/CH2Cl2, 23° C.) was determined as 30 h. For the same molecule, the “half-life (t1/2) in acidic media” value in data set [1] (4 N HCl/EtOAc, 23° C. (12, 15: after initial Boc deprotection)) was > 72 h. In addition, in data set [2] (setting [8]), the IC50 is 740 nM. Further, in data set [2] (read-out: IC50 L1210 natural, natural enantiomer, 72 hours), the IC50 was found to be 0.99 nM. The “cleavage under reductive conditions” value in data set [3] is listed as “rapidly cleaved”. For the same molecule, in data set [4] (setting [9]), the “MSP (Mean Survival Period)” value was 28 days, the “Surviving Mice (live animals after 366 days)” value (from here on “Surviving Mice”) is reported as 0/10 and the “T/C = Treated/Control (MSP) × 100” value is 159. Also, in data set [4] (setting [10]), the “MSP (Mean Survival Period)” value was >68 days, the “Surviving Mice” value is reported as 1/10 and the “T/C = Treated/Control (MSP) × 100” value was >386. Moreover, in data set [4] (setting [11]), the “MSP (Mean Survival Period)” value is recorded as >201 days, the “Surviving Mice” value is 4/10 and the “T/C = Treated/Control (MSP) × 100” value is listed as >1142. Also, in data set [4] (setting [12]), the “MSP (Mean Survival Period)” value was >199 days, the “Surviving Mice” value is recorded as 4/10 and the “T/C = Treated/Control (MSP) × 100” value is >1130. Besides, in data set [4] (setting [13]), the “MSP (Mean Survival Period)” value is given as >264 days, the “Surviving Mice” value is listed as 6/10 and the “T/C = Treated/Control (MSP) × 100” value is >1500. Besides, the “t1/2 in human plasma” value in data set [5] is > 1 week.

`O=C(Nc1ccc2[nH]c(C(=O)N3C[C@@H](CCl)c4c3cc3c5c(cccc45)C(=O)NO3)cc2c1)c1cc2ccccc2[nH]1` [Compound 7, N-(2-(10-(Chloromethyl)-4-oxo-5,8,9,10-tetrahydro-4H-pyrrolo[3′,2′:5,6]naphtho[1,8-de][1,2]oxazine-8-carbonyl)-1H-indol-5-yl)-1H-indole-2-carboxamide]: the “t1/2 in pH 7.0 phosphate buffer” value was found to be 1 week. Also, the “free drug in mouse plasma” value in data set [6] is listed as < 5%. Further, in data set [2] (setting [8]), the IC50 is 65 nM. Also, in data set [2] (Mus musculus, L1210, natural enantiomer, 72 hours, read-out: IC50 L1210 natural), the IC50 was found to be 0.3 nM. The “t1/2 in human plasma” value in data set [5] is recorded as 4 days.

As for `O=C(Nc1ccc2[nH]c(C(=O)N3C[C@@H](CCl)c4c3cc(O)c3ccccc43)cc2c1)c1cc2ccccc2[nH]1` [Compound (+)-4, seco-CBI-indole2, reference compound], the “therapeutic window (dose range)” value in data set [7] was 0.03 to 0.1 mg/kg. Also, in data set [4] (setting [9]), the “Surviving Mice” value is 1/10; the “T/C = Treated/Control (MSP) × 100” value is > 284 and 284. For the same molecule, the “toxicity in tumor-bearing mice” value in data set [4] (all higher doses (100-500 μg/kg)) is listed as “proved toxic leading to premature death of the animals due to drug toxicity”. For the same molecule, the “toxicity in tumor-bearing mice” value in data set [4] (dosing at 60 to 500 μg/kg) is “premature death”.
